Measured values reported in US20250120967A1, “TYROSINE KINASES INHIBITORS AND USES THEREOF” (GREAT NOVEL THERAPEUTICS BIOTECH & MEDICALS CORPORATION, priority 2023, published 2025).

Legend:
A549 cells = experiment: In vitro cytotoxicity assay (MTT, 72 h); assay type: cell-based; conditions: Homo sapiens, growth inhibition
Procedure: (§1) Six different cell lines were used, including human breast cancer cell lines MDA-MB-231 (6×10^3) and MDA-MB-453 (2.4×10^4), human colorectal cell line SW48 (2.4×10^4), human breast epithelial cell line M10 (6×10^3), human cancer cell line A549 (1.4×10^3), and murine colorectal carcinoma tumors CT26 (6×10^3), which were seeded in a 96-well plate. […] After 72 h, MTT assay (Cayman™) was used to determine the cellular viability.

M10 cells = experiment: In vitro cytotoxicity assay (MTT, 72 h); assay type: cell-based; conditions: growth inhibition, human normal cell line
Procedure: as §1

MDA-MB-231 cells = experiment: In vitro cytotoxicity assay (MTT, 72 h); assay type: cell-based; conditions: Homo sapiens, growth inhibition
Procedure: as §1

SW48 cells = experiment: In vitro cytotoxicity assay (MTT, 72 h); assay type: cell-based; conditions: Homo sapiens, growth inhibition
Procedure: as §1

MDA-MB-453 cells = experiment: In vitro cytotoxicity assay (MTT, 72 h); assay type: cell-based; conditions: Homo sapiens, growth inhibition
Procedure: as §1

CT-26 cells = experiment: In vitro cytotoxicity assay (MTT, 72 h); assay type: cell-based, murine; conditions: Mus musculus, CT26, growth inhibition
Procedure: as §1

CT26 tumor = experiment: Experimental tumor model and therapies, CT26 tumor-bearing mice;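 note: male Balb/c mice bearing CT26 grafts in the back, treated once tumors reached roughly 250–300 mm^3, tumor volume measured twice weekly, response graded by fold growth after treatment end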
Procedure: LLC1 was grown at 37° C. under humidified air supplemented with CO2 in DMEM (#10-013-CM, Corning®) containing 10% heat inactivated fetal calf serum, and 1× concentration of MycoZap Antibiotics. CT26 was grown at 37° C. under humidified air supplemented with CO2 in RPMI1640 (cat. #10-040-CM, Corning®) containing 10% heat inactivated fetal calf serum, and 1× concentration of MycoZap Antibiotics. After the cancer cell culture was completed, it was implanted (1×10^6 cells/mouse) into the back of the mouse for growth.
Six- to eight-week-old male Balb/c mice (National Laboratory Animal Center, Taiwan) were used for all animal experiments. […] Tumors were allowed to grow for 10-12 days (tumor size about 250-300 mm^3) before randomization and treatment. The tumor volume of the mice was measured once every three or four days (twice/week). Animals were euthanized when tumors reached more than 3000 mm^3 in diameter. […] Relapse/recurrence was defined as when tumor growth reappeared and tumor size reached at least 5 fold in mice with CR or PR response after secondary tumor assessment. In this study, we defined Complete Response (CR, <0.5 time tumor growth in the tumor bearing mice at tumor assessment after the end of treatment); Partial Response (PR, tumor size ≥0.5 time tumor growth, but <1 time tumor growth in the tumor bearing mice at tumor assessment after the end of treatment); Stable Disease (SD, ≥1 time tumor growth, but <5 times tumor growth in the tumor bearing mice at tumor assessment after the end of treatment); and Progressive Disease (PD, ≥5 times tumor growth in the tumor bearing mice at tumor assessment after the end of treatment) for the evaluation of treatment efficacy.

[1] = FIG. 3E, oral 12 days, Cabozantinib 30 mg/kg, Cbo-20 30 mg/kg, GNTbm-38-K30 40 mg/kg
[2] = FIG. 7E, Cbo-23-K30 30 mg/kg, Zanzalintinib hemifumarate 30 mg/kg, GNTbm-38-2HCL 40 mg/kg
[3] = FIG. 5E, Cbo-23 30 mg/kg, Regorafenib 30 mg/kg, GNTbm-38-K30 20 mg/kg in combination, 5 mg/kg alone

Compound	IC50 (A549 cells)	IC50 (M10 cells)	IC50 (MDA-MB-231 cells)	IC50 (SW48 cells)	IC50 (MDA-MB-453 cells)	IC50 (CT-26 cells)	further results
COc1cc2nccc(Oc3ccc(C(=O)NC4(C(=O)Nc5ccc(F)cc5)CC4)cc3F)c2cc1OC [Cbo-03, 4-((6,7-diMethoxyquinolin-4-yl)oxy)-3-fluoro-N-(1-((4-fluorophenyl)carbamoyl)cyclopropyl)benzamide]	12.8 ± 6.7 µM	16.2 ± 1.44 µM	12.7 ± 1.37 µM	> 25 µM	17.9 ± 1.34 µM	–	–
COc1cc2nccc(Oc3ccc(NC(=O)C4(NC(=O)c5ccc(F)cc5)CC4)cc3F)c2cc1Oc1ccc(N)cc1 [Cbo-05]	2.51 ± 0.21 µM	1.17 ± 0.053 µM	7.84 ± 1.34 µM	1.86 ± 0.059 µM	8.92 ± 1.49 µM	8.9 ± 0.61 µM	–
COc1cc2nccc(Oc3ccc(NC(=O)C4(NC(=O)c5ccc(F)cc5)CC4)cc3F)c2cc1Oc1ccc(N)cn1 [Cbo-06]	6.89 ± 1.61 µM	5.59 ± 0.46 µM	> 25 µM	8.76 ± 0.52 µM	> 25 µM	–	–
COc1cc2nccc(Oc3ccc(NC(=O)C4(NC(=O)c5ccc(F)cc5)CC4)cc3F)c2cc1O [Cbo-07, 4-Fluoro-N-(1-((3-fluoro-4-((6-hydroxy-7-methoxyquinolin-4-yl)oxy)phenyl)carbamoyl)cyclopropyl)benzamide]	1.49 ± 0.21 µM	4.44 ± 1.51 µM	5.07 ± 1.04 µM	0.74 ± 0.13 µM	> 25 µM	–	–
COc1cc2nccc(Oc3ccc(NC(=O)C4(NC(=O)c5ccc(F)cc5)CC4)cc3F)c2cc1Oc1cccc(N)c1 [Cbo-08]	2.6 ± 1.82 µM	1.83 ± 0.72 µM	> 25 µM	3.51 ± 0.48 µM	> 25 µM	–	–
COc1cc2nccc(Oc3ccc(NC(=O)C4(NC(=O)c5ccc(F)cc5)CC4)cc3F)c2cc1Oc1ccc(N)cc1C [Cbo-09]	6.89 ± 1.61 µM	0.99 ± 0.044 µM	12.6 ± 0.98 µM	1.02 ± 0.008 µM	9.28 ± 0.66 µM	–	–
COc1cc2nccc(Oc3ccc(N(C(=O)C4(C(N)=O)CC4)c4ccc(F)cc4)cc3F)c2cc1OC [Cbo-20, N-(4-((6,7-dimethoxyquinolin-4-yl)oxy)-3-fluorophenyl)-N-(4-fluorophenyl)cyclo-propane-1,1-dicarboxamide]	3.34 ± 0.69 µM	5.47 ± 1.73 µM	4.81 ± 1.16 µM	2.51 ± 0.18 µM	14.1 ± 2.06 µM	8.89 ± 0.24 µM	CR (number of mice) (CT26 tumor; [1]): 2; ORR (CT26 tumor; [1]): 50%; PD (number of mice) (CT26 tumor; [1]): 2; PR (number of mice) (CT26 tumor; [1]): 2; Survival Rate (CT26 tumor; FIG. 3F, Cabozantinib 30 mg/kg, Cbo-20 30 mg/kg, GNTbm-38-K30 40 mg/kg): 25%; recurrence rate (CT26 tumor; FIG. 3G, day 60, Cabozantinib 30 mg/kg, Cbo-20 30 mg/kg, GNTbm-38-K30 40 mg/kg): 75%
CC(CN)NC(=O)c1cc(Oc2ccc(N(C(=O)C3(C(N)=O)CC3)c3ccc(F)cc3)cc2F)ccn1 (centres unmarked) [Cbo-22, N-(4-((2-((1-aminopropan-2-yl)carbamoyl)pyridin-4-yl)oxy)-3-fluorophenyl)-N-(4-fluorophenyl)cyclopropane-1,1-dicarboxamide]	11.2 ± 1.18 µM	15.1 ± 0.44 µM	16.1 ± 0.19 µM	21.9 ± 0.96 µM	> 25 µM	> 25 µM	ORR (CT26 tumor; FIG. 4D, Cabozantinib 30 mg/kg, Cbo-22 30 mg/kg, GNTbm-38-K30 40 mg/kg): 0%; Survival Rate (CT26 tumor; FIG. 4E, Cabozantinib 30 mg/kg, Cbo-22 30 mg/kg, GNTbm-38-K30 40 mg/kg): 0%
COc1cc2nccc(Oc3ccc(NC(=O)C4(C(=O)Nc5ccc(F)cc5)CC4)cc3F)c2cc1C(=O)NC(C)CN (centres unmarked) [Cbo-24, O-phenyl-N-(4-fluorophenyl)cyclopropane-1,1-dicarboxamide]	16.2 ± 0.95 µM	> 25 µM	15.7 ± 0.33 µM	8.75 ± 0.55 µM	17 ± 0.96 µM	> 25 µM	–
Nc1ccccc1NC(=O)c1ccc(NC(=O)C/C=C/c2cccnc2)cc1 [GNTbm-38-2HCL, (E)-N-(2-aminophenyl)-4-(4-(pyridin-3-yl)but-3-enamido)benzamide]	–	–	–	–	–	–	CR (number of mice) (CT26 tumor; [2]): 0; ORR (CT26 tumor; [2]): 0%; PD (number of mice) (CT26 tumor; [2]): 9; PR (number of mice) (CT26 tumor; [2]): 0
CNC(=O)c1cc(Oc2ccc(NC(=O)Nc3ccc(Cl)c(C(F)(F)F)c3)c(F)c2)ccn1 [Regorafenib]	–	–	–	–	–	–	CR (number of mice) (CT26 tumor; [3]): 0; ORR (CT26 tumor; [3]): 0%; PD (number of mice) (CT26 tumor; [3]): 7; PR (number of mice) (CT26 tumor; [3]): 0; Survival Rate (CT26 tumor; FIG. 5F, Cbo-23 30 mg/kg, Regorafenib 30 mg/kg, GNTbm-38-K30 20 mg/kg in combination, 5 mg/kg alone): 0%
Zanzalintinib hemifumarate	–	–	–	–	–	–	CR (number of mice) (CT26 tumor; [2]): 0; ORR (CT26 tumor; [2]): 0%; PD (number of mice) (CT26 tumor; [2]): 9; PR (number of mice) (CT26 tumor; [2]): 0; tumor inhibition rate at day 28 (CT26 tumor; FIGS. 7B, 7C, Cbo-23-K30 30 mg/kg, Zanzalintinib hemifumarate 30 mg/kg, GNTbm-38-2HCL 40 mg/kg): 2%
